The record followed here is patent publication US8871777B2, “Phenylpyrimidone compounds, the pharmaceutical compositions, preparation methods and uses thereof” (Topharman Shanghai Co., Ltd., priority 2008, dated 2014).

Test [1] deals with T1, human blood platelet PDE5 (Homo sapiens, UniProt O76074).
T1 construct: obtained by suitably treating various tissues and separating the enzyme with FPLC; from tissue; host or cells: human blood platelets
The test is described as follows: PDE5 enzyme inhibition activity test (scintillation proximity). In kind it is biochemical. The protocol:
(§1) More specifically, PDE5 and PDE3 were obtained from human blood platelet, and PDE6 was separated from bovine retina. Upon enzyme was separated out, the enzyme inhibition activity test would be carried out immediately. The said enzyme inhibition activity test was performed by directly detecting the scintillation proximity of AMP/GMP using TRKQ7100 and TRKQ7090 kits, which was generally as follows. In the presence of different concentrations of inhibitor and a small amount of substrate, 10 μl of buffer (50 mM Tris/HCl PH 7.5, 8.3 mM MgCl2, 1.7 mM EGTA) was added, and then water was added to a final volume of 100 μl. The reaction was initiated with a fixed amount of enzyme, incubated at 30° C. for 30 min, and then quenched with 50 μl of yttrium silicate beads comprising zinc sulphate. After shaken for 20 min, the reaction mixture was put in dark and settled for 30 min, and then readed on a BECKMAN LS6500 MULTI-PURPOSE SCINTILLATION COUNTER.
A general note: SPA uses beads or plates that emit light when radiolabelled molecules are held near them.

Another test deals with T2, PDE6 in bovine retina (Bos taurus, UniProt P11541+P23439).
T2 construct: obtained by suitably treating various tissues and separating the enzyme with FPLC; from tissue; host or cells: bovine retina
T2 sequence (P11541 2-856 limits assumed): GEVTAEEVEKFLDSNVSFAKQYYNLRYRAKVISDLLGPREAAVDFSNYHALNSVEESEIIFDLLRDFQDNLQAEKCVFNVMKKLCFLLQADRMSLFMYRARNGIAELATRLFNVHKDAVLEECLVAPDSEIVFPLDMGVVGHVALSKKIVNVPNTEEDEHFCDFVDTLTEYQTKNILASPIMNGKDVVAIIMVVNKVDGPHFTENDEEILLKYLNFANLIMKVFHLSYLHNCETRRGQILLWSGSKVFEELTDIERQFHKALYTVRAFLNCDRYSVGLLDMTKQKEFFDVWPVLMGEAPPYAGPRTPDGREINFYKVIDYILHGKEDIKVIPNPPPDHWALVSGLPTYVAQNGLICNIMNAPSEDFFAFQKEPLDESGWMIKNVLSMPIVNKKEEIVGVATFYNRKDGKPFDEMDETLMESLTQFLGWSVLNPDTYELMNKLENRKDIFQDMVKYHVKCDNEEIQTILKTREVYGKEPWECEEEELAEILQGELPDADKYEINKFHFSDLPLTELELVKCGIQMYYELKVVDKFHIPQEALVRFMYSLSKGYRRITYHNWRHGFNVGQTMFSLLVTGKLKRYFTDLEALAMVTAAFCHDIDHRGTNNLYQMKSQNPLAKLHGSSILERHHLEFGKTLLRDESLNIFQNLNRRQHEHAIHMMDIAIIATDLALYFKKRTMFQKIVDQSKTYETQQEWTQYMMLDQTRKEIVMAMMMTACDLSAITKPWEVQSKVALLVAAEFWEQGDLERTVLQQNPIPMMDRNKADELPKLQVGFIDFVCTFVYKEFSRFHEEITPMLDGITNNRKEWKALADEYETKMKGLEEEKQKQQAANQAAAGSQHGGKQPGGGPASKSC
T2 sequence (P23439 2-850 limits assumed): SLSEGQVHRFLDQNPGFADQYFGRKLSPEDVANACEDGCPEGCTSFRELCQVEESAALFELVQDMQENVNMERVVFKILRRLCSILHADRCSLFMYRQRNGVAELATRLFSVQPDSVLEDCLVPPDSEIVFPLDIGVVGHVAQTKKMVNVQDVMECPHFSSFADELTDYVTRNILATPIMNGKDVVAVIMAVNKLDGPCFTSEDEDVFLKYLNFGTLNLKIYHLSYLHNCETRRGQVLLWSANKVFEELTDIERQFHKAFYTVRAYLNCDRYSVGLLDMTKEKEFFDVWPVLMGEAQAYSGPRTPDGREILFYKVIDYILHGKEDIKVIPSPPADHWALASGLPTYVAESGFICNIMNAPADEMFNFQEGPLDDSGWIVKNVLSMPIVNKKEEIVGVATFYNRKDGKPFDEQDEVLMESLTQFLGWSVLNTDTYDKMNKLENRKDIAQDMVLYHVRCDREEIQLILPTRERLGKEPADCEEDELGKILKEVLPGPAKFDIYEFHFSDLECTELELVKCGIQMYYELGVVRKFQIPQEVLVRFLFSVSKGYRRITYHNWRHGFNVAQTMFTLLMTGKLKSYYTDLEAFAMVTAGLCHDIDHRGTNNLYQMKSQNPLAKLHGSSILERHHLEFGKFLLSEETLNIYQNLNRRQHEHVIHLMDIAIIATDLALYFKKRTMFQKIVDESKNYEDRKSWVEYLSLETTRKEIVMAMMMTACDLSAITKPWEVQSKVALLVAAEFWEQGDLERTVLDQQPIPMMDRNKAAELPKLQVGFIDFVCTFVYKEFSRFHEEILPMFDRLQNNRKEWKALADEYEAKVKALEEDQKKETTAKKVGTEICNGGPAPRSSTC
The experiment in a line: PDE6 enzyme inhibition activity test (scintillation proximity). It counts as biochemical. The conditions noted are these: for PDE6 IC50/PDE5 IC50: selectivity, ratio of IC50 PDE6/IC50 PDE5. The protocol:
as §1

[2] abbreviates: PDE6 separated from bovine retina, read-out: PDE6 IC50.

pIC50: −log10 of the molar value. Where two headings read alike, the source gives them in different places.

Usually pIC50 stands for −log10 of the IC50, conventionally taken in molar units. Take `CCCOc1ccc(NC(=O)CCCNC(C)=O)cc1-c1nc(CC)c(CC)c(=O)[nH]1` [Example 107, 4-Acetamido-N-(3-(4,5-diethyl-1,6-dihydro-6-oxopyrimidin-2-yl)-4-n-propoxyphenyl)butyramide]: the pIC50 in test [1] (PDE5 table) is 9.04; in test [1] (as repeated in the PDE6 table), 9.04; at PDE6 in bovine retina (setting [2]) it was 8.19. The “PDE6 IC50/PDE5 IC50” value at PDE6 in bovine retina is reported as 22.64.
On to `CCCOc1ccc(NC(=O)C2CCCN2C(C)=O)cc1-c1nc(CC)c(CC)c(=O)[nH]1` (stereo not shown) [Example 108, 1-acetyl-N-(3-(4,5-diethyl-1,6-dihydro-6-oxopyrimidin-2-yl)-4-n-propoxyphenyl)pyrrolidinyl-2-formamide], for which the pIC50 was 9.27 in test [1] (PDE5 table), 9.27 in test [1] (as repeated in the PDE6 table) and 8.24 at PDE6 in bovine retina (setting [2]). For the same compound, on PDE6 in bovine retina, the “PDE6 IC50/PDE5 IC50” value came to 6.99.
With `CCCOc1ccc(NC(=O)C(Cc2ccccc2)NC(C)=O)cc1-c1nc(CC)c(CC)c(=O)[nH]1` (stereo not shown) [Example 110, 2-acetamido-N-(3-(4,5-diethyl-1,6-dihydro-6-oxopyrimidin-2-yl)-4-n-propoxyphenyl)-3-phenylpropionamide], the values for the pIC50 (in test [1] (PDE5 table); in test [1] (as repeated in the PDE6 table); at PDE6 in bovine retina (setting [2])) were 8.55, 8.55 and 7.65, respectively. Besides, the “PDE6 IC50/PDE5 IC50” value on PDE6 in bovine retina came to 7.80.
`CCCOc1ccc(NC(=O)C(N)=O)cc1-c1nc(CC)c(CC)c(=O)[nH]1` [Example 114, N^1-(3-(4,5-diethyl-1,6-dihydro-6-oxopyrimidin-2-yl)-4-n-propoxyphenyl)oxalamide]: the pIC50 in test [1] (PDE5 table) was 9.08; in test [1] (as repeated in the PDE6 table) it was 9.08; on PDE6 in bovine retina (setting [2]), 7.73. The “PDE6 IC50/PDE5 IC50” value on PDE6 in bovine retina amounted to 10.53.
Regarding `CCCOc1ccc(S(=O)(=O)NC(C)C(=O)OCC)cc1-c1nc(CC)c(CC)c(=O)[nH]1` (stereo not shown) [Example 123, ethyl 2-(N-(3-(4,5-diethyl-1,6-dihydro-6-oxopyrimidin-2-yl)-4-n-propoxyphenyl)sulfonyl)aminopropionate], the pIC50 in test [1] (PDE5 table) is 9.31; in test [1] (as repeated in the PDE6 table) it was 9.31; on PDE6 in bovine retina (setting [2]) it was 7.88. Moreover, the “PDE6 IC50/PDE5 IC50” value on PDE6 in bovine retina is listed as 27.3.
In the case of `CCCOc1ccc(S(=O)(=O)NCCCS(=O)(=O)O)cc1-c1nc(CC)c(CC)c(=O)[nH]1` [Example 124, 3-(N-(3-(4,5-diethyl-1,6-dihydro-6-oxopyrimidin-2-yl)-4-n-propoxyphenyl)sulfonyl)aminopropylsulfonic acid], the pIC50 in test [1] (PDE5 table) was 9.89; in test [1] (as repeated in the PDE6 table), 9.89; on PDE6 in bovine retina (setting [2]), 8.42. At PDE6 in bovine retina, the “PDE6 IC50/PDE5 IC50” value is 28.6.
For `CCCOc1ccc(S(=O)(=O)NCCS(=O)(=O)O)cc1-c1nc(CC)c(CC)c(=O)[nH]1` [Example 125, 2-(N-(3-(4,5-diethyl-1,6-dihydro-6-oxopyrimidin-2-yl)-4-n-propoxyphenyl)sulfonyl)aminoethylsulfonic acid], the pIC50 in test [1] (PDE5 table) is 9.72; in test [1] (as repeated in the PDE6 table), 9.72; against PDE6 in bovine retina it was 8.57. In addition, the “PDE6 IC50/PDE5 IC50” value at PDE6 in bovine retina came out at 14.6.
Regarding `CCCOc1ccc(S(=O)(=O)NC(CC(N)=O)C(=O)O)cc1-c1nc(CC)c(CC)c(=O)[nH]1` (stereo not shown) [Example 126, 2-(N-(3-(4,5-diethyl-1,6-dihydro-6-oxopyrimidin-2-yl)-4-n-propoxyphenyl)sulfonyl)amino-3-aminoformylpropionic acid], the pIC50 is 8.75 in test [1] (PDE5 table), 8.75 in test [1] (as repeated in the PDE6 table) and 7.26 at PDE6 in bovine retina (setting [2]). The “PDE6 IC50/PDE5 IC50” value on PDE6 in bovine retina came to 30.7.
On to `CCCOc1ccc(S(=O)(=O)N2CCN(CCO)CC2)cc1-c1nc(CC)c(CC)c(=O)[nH]1` [Example 133, 5,6-diethyl-2-(2-n-propoxy-5-(4-hydroxyethyl-1-piperazinylsulfonyl)phenyl]pyrimid-4(3H)-one], for which the pIC50 in test [1] (PDE5 table) is 8.95; in test [1] (as repeated in the PDE6 table) it was 8.88; at PDE6 in bovine retina (setting [2]) it was 7.68. Besides, on PDE6 in bovine retina, the “PDE6 IC50/PDE5 IC50” value stood at 15.9.
As for `CCCOc1ccc(S(=O)(=O)N(CCO)CCN2CCOCC2)cc1-c1nc(CC)c(CC)c(=O)[nH]1` [Example 135, 5,6-diethyl-2-(2-n-propoxy-5-(N-(2-morpholinylethyl)-N-(2-hydroxyethyl)aminosulfonyl)phenyl)pyrimid-4(3H)-one], the pIC50 in test [1] (PDE5 table) is 9.00; in test [1] (as repeated in the PDE6 table), 9.00; at PDE6 in bovine retina (setting [2]) it was 8.02. For the same compound, the “PDE6 IC50/PDE5 IC50” value at PDE6 in bovine retina is recorded as 9.6.
Consider `CCCOc1ccc(C(=O)NC(Cc2ccccc2)C(=O)O)cc1-c1nc(CC)c(CC)c(=O)[nH]1` (stereo not shown) [Example 138, 2-(3-(4,5-diethyl-1,6-dihydro-6-oxopyrimidin-2-yl)-4-n-propoxybenzamido)-3-phenylpropionic acid], for which the values for the pIC50 (in test [1] (PDE5 table); in test [1] (as repeated in the PDE6 table); at PDE6 in bovine retina (setting [2])) were 9.33, 9.33 and 8.27, respectively. Also, on PDE6 in bovine retina, the “PDE6 IC50/PDE5 IC50” value was determined as 11.4.
For the compound `CCCOc1ccc(C(=O)N2CCCC2C(=O)OC)cc1-c1nc(CC)c(CC)c(=O)[nH]1` (stereo not shown) [Example 139], the figures for the pIC50 (in test [1] (PDE5 table); in test [1] (as repeated in the PDE6 table); at PDE6 in bovine retina (setting [2])) were 9.21, 9.21 and 8.11, respectively. For the same compound, the “PDE6 IC50/PDE5 IC50” value at PDE6 in bovine retina was determined as 12.8.
Regarding `CCCOc1ccc(C(=O)NC(Cc2ccc(O)cc2)C(=O)OC)cc1-c1nc(CC)c(CC)c(=O)[nH]1` (stereo not shown) [Example 140, methyl 2-(3-(4,5-diethyl-1,6-dihydro-6-oxopyrimidin-2-yl)-4-n-propoxybenzamido)-3-(4-hydroxyphenyl)propionate], the pIC50 is 9.24 in test [1] (PDE5 table), 9.24 in test [1] (as repeated in the PDE6 table) and 8.37 on PDE6 in bovine retina (setting [2]). The “PDE6 IC50/PDE5 IC50” value on PDE6 in bovine retina stood at 7.5.
With `CCCOc1ccc(C(=O)NC(C)C(=O)O)cc1-c1nc(CC)c(CC)c(=O)[nH]1` (stereo not shown) [Example 145, 2-(3-(4,5-diethyl-1,6-dihydro-6-oxopyrimidin-2-yl)-4-n-propoxybenzamido)propionic acid], the pIC50 was 9.33 in test [1] (PDE5 table), 9.33 in test [1] (as repeated in the PDE6 table) and 7.62 at PDE6 in bovine retina (setting [2]). Moreover, at PDE6 in bovine retina, the “PDE6 IC50/PDE5 IC50” value stood at 51.5.
Regarding `CCCOc1ccc(C(=O)NC(CC(N)=O)C(=O)O)cc1-c1nc(CC)c(CC)c(=O)[nH]1` (stereo not shown) [Example 146, 2-(3-(4,5-diethyl-1,6-dihydro-6-oxopyrimidin-2-yl)-4-n-propoxybenzamido)-3-aminoformylpropionic acid], the figures for the pIC50 (in test [1] (PDE5 table); in test [1] (as repeated in the PDE6 table); at PDE6 in bovine retina (setting [2])) were 9.03, 9.03 and 8.18, respectively. For the same compound, the “PDE6 IC50/PDE5 IC50” value on PDE6 in bovine retina amounted to 7.2.
Turning to `CCCOc1ccc(C(=O)NC(Cc2ccccc2)C(=O)OC)cc1-c1nc(CC)c(CC)c(=O)[nH]1` (stereo not shown) [Example 150, methyl 2-(3-(4,5-diethyl-1,6-dihydro-6-oxopyrimidin-2-yl)-4-n-propoxybenzamido)-3-phenylpropionate], the pIC50 in test [1] (PDE5 table) is 9.28; in test [1] (as repeated in the PDE6 table), 9.28; at PDE6 in bovine retina (setting [2]), 8.56. At PDE6 in bovine retina, the “PDE6 IC50/PDE5 IC50” value was 5.3.
